PubChem BioAssay AID330 (DTP/NCI, 2004)
Several values for one entry are separate records, joined by “and”; a condition that tells them apart may be missing. Identical values can stand only once. Toxic doses and inconclusive results are not listed. Rule for the calls: active = survival T/C of 150% or more; inactive = T/C below 125% in these data.

Test system: P388 leukemia ip, CD2F1 mice, survival T/C
Assay: NCI In Vivo Anticancer Drug Screen. Data for tumor model P388 Leukemia (intraperitoneal) in CD2F1 (CDF1) mice
Settings: endpoint: median survival time, higher = longer survival
Method in brief: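 Mice carrying the transplanted tumor received test compound or vehicle. Survival was recorded in each group, and the value is the treated-group measurement divided by that of the vehicle-treated control group.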

[1] = dose: 12.5 mg/kg/injection, schedule: Q01DX009 (ip), vehicle: other
[2] = dose: 25.0 mg/kg/injection, schedule: Q01DX009 (ip), vehicle: other
[3] = dose: 50.0 mg/kg/injection, schedule: Q01DX009 (ip), vehicle: other
[4] = dose: 100.0 mg/kg/injection, schedule: Q01DX009 (ip), vehicle: other
[5] = dose: 50.0 mg/kg/injection, schedule: Q01DX005 (ip), vehicle: saline with Tween-80
[6] = dose: 100.0 mg/kg/injection, schedule: Q01DX005 (ip), vehicle: saline with Tween-80
[7] = dose: 200.0 mg/kg/injection, schedule: Q01DX005 (ip), vehicle: saline with Tween-80
[8] = dose: 100.0 mg/kg/injection, schedule: Q04DX003 (ip), vehicle: saline with Tween-80
[9] = dose: 200.0 mg/kg/injection, schedule: Q04DX003 (ip), vehicle: saline with Tween-80
[10] = dose: 50.0 mg/kg/injection, schedule: Q01DX009 (ip), vehicle: saline with Tween-80
[11] = dose: 100.0 mg/kg/injection, schedule: Q01DX009 (ip), vehicle: saline with Tween-80
[12] = dose: 200.0 mg/kg/injection, schedule: Q01DX009 (ip), vehicle: saline with Tween-80
[13] = dose: 400.0 mg/kg/injection, schedule: Q01DX009 (ip), vehicle: saline with Tween-80
[14] = dose: 120.0 mg/kg/injection, schedule: Q01DX005 (ip), vehicle: saline with Tween-80
[15] = dose: 240.0 mg/kg/injection, schedule: Q01DX005 (ip), vehicle: saline with Tween-80
[16] = dose: 3.13 mg/kg/injection, schedule: Q01DX009 (ip), vehicle: other
[17] = dose: 6.25 mg/kg/injection, schedule: Q01DX009 (ip), vehicle: other
[18] = dose: 50.0 mg/kg/injection, schedule: Q01DX005 (ip), vehicle: Klucel (hydroxypropylcellulose) (HPC)
[19] = dose: 100.0 mg/kg/injection, schedule: Q01DX005 (ip), vehicle: Klucel (hydroxypropylcellulose) (HPC)
[20] = dose: 200.0 mg/kg/injection, schedule: Q01DX005 (ip), vehicle: Klucel (hydroxypropylcellulose) (HPC)
[21] = dose: 25.0 mg/kg/injection, schedule: Q01DX005 (ip), vehicle: saline
[22] = dose: 50.0 mg/kg/injection, schedule: Q01DX005 (ip), vehicle: saline
[23] = dose: 100.0 mg/kg/injection, schedule: Q01DX005 (ip), vehicle: saline

Measured: T/C

c1ccc(-n2nc3c(c2-c2ccncc2)CCCc2ccccc2-3)cc1
inactive: [1] 96 % of control | [2] 98 % of control | [3] 120 % of control | [4] 110 % of control | dose: 200.0 mg/kg/injection, schedule: Q01DX009 (ip), vehicle: other 96 % of control

CN1C(=S)NC2C(O)C(O)C(CO)OC21 (stereo not drawn)
inactive: [5] 97 % of control | [6] 99 % of control | [7] 99 % of control

CCCC1CCCCN1Cc1ccccc1 (stereo not drawn)
inactive: [5] 107 % of control | [6] 104 % of control

Fc1ccc(NC(=S)SCc2ccc(Cl)cc2)c(F)c1
inactive: dose: 50.0 mg/kg/injection, schedule: Q01DX009 (ip), vehicle: suspension in saline 93 % of control | dose: 100.0 mg/kg/injection, schedule: Q01DX009 (ip), vehicle: suspension in saline 100 % of control | dose: 200.0 mg/kg/injection, schedule: Q01DX009 (ip), vehicle: suspension in saline 100 % of control

C=C1C(=O)OC2C=C(C)CC3C=C(CCC=C(C)CCC12)C(=O)O3 (stereo not drawn)
inactive: dose: 50.0 mg/kg/injection, schedule: Q04DX003 (ip), vehicle: saline with Tween-80 102 % of control | [8] 104 % of control | [9] 115 % of control

CCC(=O)Nc1ccc(Br)cc1
inactive: [10] 102 % of control | [11] 94 % of control | [12] 96 % of control | [13] 96 % of control

CNC(=O)N(C)CP(=O)(CN(C)C(=O)NC)CN(C)C(=O)NC
inactive: dose: 50.0 mg/kg/injection, schedule: Q01DX009 (ip), vehicle: saline 97 % of control | dose: 100.0 mg/kg/injection, schedule: Q01DX009 (ip), vehicle: saline 100 % of control | dose: 200.0 mg/kg/injection, schedule: Q01DX009 (ip), vehicle: saline 99 % of control

CC(=O)Nc1ccc2cc(-c3ccc(Cl)cc3)c3nnnn3c2n1
inactive: [5] 96 % of control | [6] 94 % of control | [7] 93 % of control

CN(C)CCn1nc2n(c(=O)c1=O)CC(=O)N(C)c1ccc(Cl)cc1-2
inactive: dose: 100.0 mg/kg/injection, schedule: Q01DX001 (ip), vehicle: Klucel (hydroxypropylcellulose) (HPC) 100 % of control | dose: 200.0 mg/kg/injection, schedule: Q01DX001 (ip), vehicle: Klucel (hydroxypropylcellulose) (HPC) 101 % of control | dose: 400.0 mg/kg/injection, schedule: Q01DX001 (ip), vehicle: Klucel (hydroxypropylcellulose) (HPC) 96 % of control

COc1cc2cc3cc(-c4ccc(Cl)cc4)c(N4CCOCC4)nc3nc2cc1OC
inactive: dose: 15.0 mg/kg/injection, schedule: Q01DX005 (ip), vehicle: saline with Tween-80 92 % of control | dose: 30.0 mg/kg/injection, schedule: Q01DX005 (ip), vehicle: saline with Tween-80 93 % of control | [14] 91 % of control | [15] 93 % of control

[O-]c1n[n+](-c2ccccc2)no1
inactive: [16] 97 % of control | [17] 96 % of control | [1] 109 % of control | [2] 101 % of control

Cc1nn(C(=S)S)c(C)c1N=Nc1cc(Cl)ccc1Cl
inactive: [5] 100 % of control | [6] 95 % of control | [7] 95 % of control

CC(=O)OC(C(=O)C=[N+]=[N-])C(OC(C)=O)C(OC(C)=O)C(=O)C=[N+]=[N-] (stereo not drawn)
inactive: dose: 50.0 mg/kg/injection, schedule: Q01DX009 (ip), vehicle: Klucel (hydroxypropylcellulose) (HPC) 99 % of control | dose: 100.0 mg/kg/injection, schedule: Q01DX009 (ip), vehicle: Klucel (hydroxypropylcellulose) (HPC) 113 % of control | dose: 200.0 mg/kg/injection, schedule: Q01DX009 (ip), vehicle: Klucel (hydroxypropylcellulose) (HPC) 108 % of control

CCOC(=O)C(CCC[n+]1ccc2ccccc2c1)C(=O)OCC
inactive: [18] 96 % of control | [19] 98 % of control | [20] 98 % of control

CN(C)c1ccc2[nH]c3c(C(=O)O)cc(=O)c(=O)c=3oc2c1
inactive: [5] 108 % of control | [6] 100 % of control

CS(=O)(=O)OCC(O)C(O)CI (stereo not drawn)
inactive: [21] 109 % of control | [22] 104 % of control | [23] 111 % of control

CC1=CC(OC(C)C)OC1=O (stereo not drawn)
inactive: [22] 108 % of control | [23] 110 % of control | dose: 200.0 mg/kg/injection, schedule: Q01DX005 (ip), vehicle: saline 110 % of control

CCCCCN(CCCCC)C(C)C(O)c1ccc2cc(Cl)c3ccccc3c2c1 (stereo not drawn)
inactive: [5] 99 % of control | [6] 101 % of control

CS/C(N)=N\NCCC(=O)Nc1c(C)cccc1C
inactive: dose: 100.0 mg/kg/injection, schedule: Q04DX002 (ip), vehicle: saline with Tween-80 100 % of control | dose: 200.0 mg/kg/injection, schedule: Q04DX002 (ip), vehicle: saline with Tween-80 91 % of control | dose: 400.0 mg/kg/injection, schedule: Q04DX002 (ip), vehicle: saline with Tween-80 91 % of control

CC(=O)OC1CC2C(C)(C)C(=O)C=CC2(C)C2CCC3(C)C(c4ccoc4)OC(=O)C4OC43C12C (stereo not drawn)
inactive: [11] 90 % of control | [8] 109 % of control | [12] 95 % of control | [9] 100 % of control | [13] 100 % of control | dose: 400.0 mg/kg/injection, schedule: Q04DX003 (ip), vehicle: saline with Tween-80 90 % of control

CN(C)[C](=[Au][Cl])c1ccccc1
inactive: dose: 25.0 mg/kg/injection, schedule: Q04DX002 (ip), vehicle: Klucel (hydroxypropylcellulose) (HPC) 109 % of control | dose: 50.0 mg/kg/injection, schedule: Q04DX002 (ip), vehicle: Klucel (hydroxypropylcellulose) (HPC) 111 % of control | dose: 100.0 mg/kg/injection, schedule: Q04DX002 (ip), vehicle: Klucel (hydroxypropylcellulose) (HPC) 108 % of control and 96 % of control

CN(C)CCC=C1c2ccccc2CCc2ccccc21
inactive: dose: 12.5 mg/kg/injection, schedule: Q01DX005 (ip), vehicle: saline 101 % of control | [21] 103 % of control | [22] 109 % of control and 116 % of control

CC1=C(C(=O)OCc2ccccc2)C(c2cccnc2)C(C(=O)OCc2ccccc2)=C(C)N1
inactive: dose: 25.0 mg/kg/injection, schedule: Q01DX009 (ip), vehicle: distilled water + Tween-80 91 % of control | dose: 50.0 mg/kg/injection, schedule: Q01DX009 (ip), vehicle: distilled water + Tween-80 100 % of control | dose: 100.0 mg/kg/injection, schedule: Q01DX009 (ip), vehicle: distilled water + Tween-80 100 % of control | dose: 200.0 mg/kg/injection, schedule: Q01DX009 (ip), vehicle: distilled water + Tween-80 98 % of control | dose: 400.0 mg/kg/injection, schedule: Q01DX009 (ip), vehicle: distilled water + Tween-80 105 % of control

CCC(C)C(=O)OC1CCC=C2C=CC(C)C(CCC3CC(O)CC(=O)O3)C21 (stereo not drawn)
inactive: dose: 15.0 mg/kg/injection, schedule: Q01DX009 (ip), vehicle: saline 107 % of control | dose: 30.0 mg/kg/injection, schedule: Q01DX009 (ip), vehicle: saline 100 % of control | dose: 60.0 mg/kg/injection, schedule: Q01DX009 (ip), vehicle: saline 100 % of control

CC(O)C(NC(=O)c1ccccc1)C(=O)O (stereo not drawn)
inactive: [10] 99 % of control | [11] 95 % of control | [12] 91 % of control

CC(=O)Oc1nnc(OC(C)=O)n1-c1ccccc1
inactive: [18] 114 % of control | [19] 111 % of control | [20] 115 % of control

CCOC(=O)C1=C(N)OC(c2ccccc2)=C(C#N)C1c1ccccc1Cl (stereo not drawn)
inactive: [18] 101 % of control | [19] 113 % of control | [20] 97 % of control

COc1cccc2c1C(=O)c1c(O)c3c(c(O)c1C2=O)CC(O)(c1csc(-c2ccncc2)n1)CC3O (stereo not drawn)
inactive: dose: 1.56 mg/kg/injection, schedule: Q01DX009 (ip), vehicle: other 106 % of control | [16] 105 % of control | [17] 104 % of control | [1] 106 % of control | [2] 113 % of control and 116 % of control | [3] 107 % of control | [4] 102 % of control

COc1cc(/C=C2/Nc3ccc(Cl)cc3NC2=O)ccc1O
inactive: dose: 60.0 mg/kg/injection, schedule: Q01DX005 (ip), vehicle: saline with Tween-80 93 % of control | [14] 98 % of control | [15] 96 % of control
